Experimental data taken from US8563599B2, “Methods for synthesizing glycinols, glyceollins I and II, compositions of selected intermediates, and therapeutic uses thereof” (The United States of America, represented by the Secretary …, priority 2008, dated 2013).
pIC50: −log10 of the molar value.

Columns and labels:
[1] = tested on: estrogen receptor (ERE-luciferase) in MCF7 ER-positive cells; assay: ERE-Luciferase assay, estrogenic and antiestrogenic activity; type: cell-based, human
Description: Cell Culture Studies (MCF7 ER-Positive Cells)
Human cancer cell lines derived from breast (MCF7, ER-positive cells) were cultured in 75 ml culture flasks in DMEM (Invitrogen, Co.) supplemented with 10% FBS (Life Technologies, Inc., Gaithersburg, Md.), basic minimum MEM essential (50×, Invitrogen Co.) and MEM non-essential (100×, Invitrogen, Co.) amino acids, sodium pyruvate (100× Invitrogen Co.), antimicotic-antibiotic (10,000 U/mL penicillin G sodium; 10,000 μg/mL streptomycin sulphate; 25 μg/mL amphotericin B as Fungizone®), and human recombinant insulin (4 mg/mL. Invitrogen Co.). The culture flasks were maintained in a tissue culture incubator in a humidified atmosphere of 5% CO2 and 95% air at 37° C. For estrogen studies, cells were washed with PBS 3 times and grown in phenol red-free DMEM supplemented with 5% dextran-coated charcoal-treated FBS (5% CS-FBS) for 72 h before plating for each particular experiment.
Results were then assessed by using an ERE-luciferase assay. The cells were plated in 24 well plates at 5×10^5 cells/well in the same media and allowed to attach overnight. After 18 hours, cells were transfected for 5 h in serum supplemented-free DMEM with […] pGL2-ERE2X-TK-luciferase plasmid, using 6 μl of effectine (Qiagen)/μg of DNA. After 5 h the transfection medium was removed and replaced with phenol red-free DMEM supplemented with 5% CS-FBS containing vehicle, 17β-estradiol, GLY I, or 17β-estradiol plus GLY I, and incubated at 37° C. After 18 h the medium was removed, and 100 μl of lysis buffer was added per well and then incubated for 15 min at room temperature. Cell debris was pelleted by centrifugation at 15000×g for 5 min. cell extracts were normalized for protein concentration using reagent according to the protocol supplied by the manufacturer (Bio-Rad Laboratories, Inc., Hercules, Calif.). Luciferase activity for the cell extracts was determined using Luciferase substrate (Promega Corp.) in an Autoluminat Plus luminometer.

[2] = molecular target: T1, hrER-α (alpha estrogen receptor) (Homo sapiens, UniProt P03372); assay: ER-α competition binding assay (fluorescence anisotropy, ES2 displacement); conditions: ERα/ES2 complex, 2 h room temperature, FIG. 9; read-out: IC50 for 50% inhibition of a standard's binding with the alpha estrogen receptor (ER-α)
T1 sequence (P03372 1-595): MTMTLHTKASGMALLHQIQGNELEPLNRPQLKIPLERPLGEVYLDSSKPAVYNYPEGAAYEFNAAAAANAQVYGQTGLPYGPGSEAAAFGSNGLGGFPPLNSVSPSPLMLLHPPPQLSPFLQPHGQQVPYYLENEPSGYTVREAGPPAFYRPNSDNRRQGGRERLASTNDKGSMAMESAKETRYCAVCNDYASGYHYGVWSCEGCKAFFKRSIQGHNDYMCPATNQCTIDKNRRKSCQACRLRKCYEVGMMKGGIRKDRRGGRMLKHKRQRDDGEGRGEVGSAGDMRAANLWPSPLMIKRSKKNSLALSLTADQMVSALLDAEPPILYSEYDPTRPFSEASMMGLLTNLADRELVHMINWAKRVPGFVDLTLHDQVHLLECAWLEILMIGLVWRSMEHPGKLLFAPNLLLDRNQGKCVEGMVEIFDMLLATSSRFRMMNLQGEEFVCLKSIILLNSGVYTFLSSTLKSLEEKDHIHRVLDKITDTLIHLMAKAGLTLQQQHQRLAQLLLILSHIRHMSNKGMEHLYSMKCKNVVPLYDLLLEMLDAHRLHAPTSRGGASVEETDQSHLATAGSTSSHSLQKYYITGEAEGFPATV
Description: This example illustrates how the biological data pertaining to interaction of the compounds with the alpha-estrogen receptors was obtained.
A 200 μM working stock solution of GLY I was prepared from an original 10 mM DMSO stock solution. The working stock solution was serially diluted in triplicate in screening buffer to the desired concentrations. hrER-α and ES2 were added to a final concentration of 2 nM and 3 nM, respectively. Negative (ER+ES2, equivalent to 0% inhibition) and positive (free ES2, equivalent to 100% inhibition) controls in the absence of competitor were measured in duplicate. After 2 h at room temperature, the anisotropy values in each tube were measured using the Beacon 2000 system CO. The anisotropy values were converted to percent inhibition using the following formula: I%=(A0−A)/(A0−A100)×100, where I% is the percent inhibition, A0 is 0% inhibition, A100 is 100% inhibition, and A represents the observed value. Polarization values were converted to percent inhibition to make the data more intuitive to the reader and to normalize the day-to-day differences in the starting 0% inhibition polarization values. The percent inhibition versus competitor concentration curves were analyzed by nonlinear least-squares curve fitting and yielded an IC50 value (the concentration of competitor needed to displace half of the bound ligand). To compare binding affinities of the test compounds to those reported in the literature, IC50 values were converted to relative binding affinities (RBA) using E2 as a standard. The E2 RBA was set equal to 100 […].

[3] = pH stability study by HPLC; type: physicochemical
From the text: This instability could derive by formation of a quinone-methide from the now unprotected ‘Southern’ ring's phenolic hydroxyl-group. Thus, mildly acidic reagents that might be used for de-protection were explored. In the end, NEt3.3 HF (see, e.g., L. D. Julian, J. S. Newcom, W. R. Roush, J. Am. Chem. Soc. 2005, 127, 6186-6187, which is hereby incorporated by reference in its entirety), which provides a pH in the range of 4-5 when run on the 0.1 mmole scale in anhydrous acetonitrile, was most successfully utilized for this transformation. Even with this approach, however, it is important to adjust the pH of the post-reaction medium (as readily followed by TLC) to pH 7-8 by addition of triethylamine so as to avoid decomposition during subsequent workup. Final compounds are obtained in the range of ca. 65-70% yields. Assignment of stereochemistry for these final materials can be accomplished with NMR and CD. In addition, at this point it is convenient to take advantage of chiral HPLC wherein authentic materials from natural sources can be used as standards along with the synthesized racemic materials.

pIC50 [2]: 5.85 | stability of ring system (HPLC) ([3]; acidic pH as low as 4): reasonable stability | stability of ring system (HPLC) ([3]; basic pH above 8): not stable
Compound: CC1(C)C=Cc2c(ccc3c2OCC2(O)c4ccc(O)cc4OC32)O1 (racemic) [racemic (±)-GLY I, (+) Glyceollin I (Racemic Glyceollin I)]
anti-estrogenic activity (ERE-Luciferase) ([1]; at 10 μM, E2 at 100 pM): strong anti-estrogenic activity | estrogenic activity (ERE-Luciferase) ([1]; concentration not given): no significant estrogenic activity
